Reference: paper PMC5329948, “Caspase vinyl sulfone small molecule inhibitors prevent axonal degeneration in human neurons and reverse cognitive impairment in Caspase-6-overexpressing mice” (Molecular Neurodegeneration, 2017)

Tests used:
[1] = biological target: T1, recombinant Caspase-1 (Homo sapiens, UniProt P29466); assay: Caspase Inhibitor Drug Screening Kit (BioVision), WAD-AFC substrate; type: biochemical; details: not active site titrated
T1 construct: purchased BioVision
Method: (§1) The half-maximal inhibitory concentrations (IC50) for NWL inhibitors (Patent publication # WO/2009/140765, WO/2010/133000, and WO/2012/140500) was determined by incubating 0 to 20 μM NWL-117 and NWL-154 with 20 nM of active site-titrated Casp6 in SB at room temperature for 5 minutes. Then, 10 μM Ac-VEID-AFC was added and fluorescence measured for 20 min at 37 °C as described above. New World Laboratories performed the IC50 determination for NWL inhibitors dissolved in dimethyl sulfoxide (DMSO) against recombinant Casp1-10 using the Caspase Inhibitor Drug Screening Kits (BioVision, San Francisco, CA) following the manufacturer’s instructions and the preferred substrates for the caspases (Caspase-1: WAD-AFC, Caspase-2: VDVAD-AFC, Caspase-3: DEVD-AFC, Caspase-4: LEVD-AFC, Caspase-5: WEHD-AFC, Casp6:VEID-AFC, Caspase-7: DEVD-AFC, Caspase-8: IETD-AFC, Caspase-9: LEHD-AFC, Caspase-10: AEVD-AFC). In transfected HCT116 cells, 0 to 100 μM NWL inhibitors were added in the culture media and left on the cells for 2 h. Cells were washed once with 1 mL ice-cold PBS, incubated on ice for 5 min with 200 μL cell lysis buffer (CLB) (50 mM HEPES, 0.1% CHAPS, 0.1 mM EDTA), and gently scraped off. Protein concentrations were determined by Bradford assay (BioRad, Mississauga, ON, CA) by measuring the absorbance at 595 nm using the BioTek Synergy H4 plate reader. […]

[2] = biological target: T2, recombinant Caspase-10 (Homo sapiens, UniProt Q92851); assay: Caspase Inhibitor Drug Screening Kit (BioVision), AEVD-AFC substrate; type: biochemical; details: not active site titrated
T2 construct: purchased BioVision
T2 sequence (Q92851 220-521): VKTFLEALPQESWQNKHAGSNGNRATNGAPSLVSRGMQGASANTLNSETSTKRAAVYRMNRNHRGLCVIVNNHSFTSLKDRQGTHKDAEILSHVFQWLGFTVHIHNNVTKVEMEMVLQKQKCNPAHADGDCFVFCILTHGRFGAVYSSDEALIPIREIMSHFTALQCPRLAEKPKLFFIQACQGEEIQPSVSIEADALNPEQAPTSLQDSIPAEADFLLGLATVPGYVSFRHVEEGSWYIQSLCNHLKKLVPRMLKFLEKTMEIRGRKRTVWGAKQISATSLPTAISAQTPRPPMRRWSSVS
Method: as §1

[3] = system: primary human CNS neurons; assay: Cellular toxicity in primary human neurons (phase contrast, MTT); type: cell-based; details: for toxicity in human neurons: concentrations up to 100 μM; for neuronal morphology / mitochondrial reductive potential (MTT): primary human neurons; for neuronal morphology: 100 μM, 24 h; for mitochondrial reductive potential (MTT): 24 or 48 h
Method: HCT116: Human colon carcinoma (HCT116) cells (ATCC, Manassas, VA, USA) were cultured in McCoy’s 5A modified media (Thermo Fisher Scientific, Waltham, MA, USA) supplemented with 10% fetal bovine serum (Thermo Fisher Scientific, Waltham, MA, USA) and transfected with 1 μg of pCep4βCasp6p20p10 mixed with 8 μg of polyethyleneimine (Polysciences Inc., Warrington, PA, USA). Protein expression was allowed for 24 h before treating with vehicle (PBS), 100 μM NWL-117, or 100 μM NWL-154 for 2 h. For NWL inhibitor kinetic experiments, 100 μM of NWL-117 or NWL-154 was added at 120, 90, 60, 30, 15, or 0 min before harvest. […] For recovery time course experiments, after the initial treatment with 100 μM of NWL-117 or −154 for 2 h, the media was replaced with fresh media for 120, 90, 60, 30, 15, or 0 min before harvest. Primary Human CNS neurons: Cortical tissues were obtained from the Birth Defects Research Laboratory (BDRL, University of Washington, Seattle, USA) in accordance with NIH ethical guidelines approved by McGill University’s institutional review board and primary neurons cultured as previously described. Primary human neurons were seeded on poly-L-lysine-coated (5 μg/mL) 6-well plates or glass coverslips coated with poly-L-lysine and laminin (5 μg/mL) (Sigma-Aldrich, Oakville, ON, CA) at a density of 3x10^6 cells/mL. Primary human neurons were pre-treated with 0.1 μM epoxomicin (Enzo LifeSciences, Farmingdale, NY, USA) and 100 μM NWL-117, 100 μM NWL-154, or vehicle (PBS) for 2 h, and serum-deprived for 2 h in the presence of epoxomicin and vehicle (PBS), 100 μM NWL-117, or 100 μM NWL-154 before harvesting or measuring caspase activity with FLICA, as described below.
Immunofluorescence on human neuron cultures: Primary human neurons were pre-treated 2 h and serum-deprived in the presence of 100 μM NWL-117, 100 μM NWL-154, or 5 μM Z-VEID-fmk (Biomol, Plymouth meeting, PA, USA) for 24 h. Following treatment, human neurons were washed once with warm PBS, fixed for 20 min at room temperature with 4% paraformaldehyde (Sigma, Oakville, ON, CA)/4% sucrose (BioRad, Mississauga, ON, CA) for TubΔCasp6 or 2% formaldehyde (Thermo Fisher Scientific, Waltham, MA, USA)/0.2% glutaraldehyde (Sigma, Oakville, ON, CA) for pBudEGFP or pBudEGFP/APP^WT-transfected neurons, incubated in permeabilization buffer (0.1% Triton X-100, 0.1 sodium citrate) for 1 min on ice, washed with PBS, blocked for 20 min at room temperature with 10% goat serum (Sigma, Oakville, ON, CA), and incubated with primary antibodies diluted in 10% goat serum in PBS overnight at 4 °C in a humid chamber. The glass coverslips were washed with PBS, and incubated with goat anti-rabbit secondary antibody coupled to Alexa 488 (Molecular Probes, Eugene, OR, USA) or Cy3 (GE Healthcare Life Sciences, Baie D’Urfe, QC, CA) and Hoechst 33342 (ImmunoChemistry, Bloomington, MN, USA) at 1 μg/mL for 2 h at room temperature. The coverslips were washed with PBS and rinsed in Milli-Q water before mounting in fluoromount (Dako, Burlington, ON, CA). Images were acquired by fluorescence microscopy and quantified using the ImageJ software (NIH, Bethesda, MD, USA) for TubΔCasp6 and manually counted for transfected EGFP(+)-neurons. Time lapse-imaging by live fluorescence microscopy: Primary human neurons were transfected with gold beads coated with pBudEGFP or pBudEGFP/APP^WT using a Helios Gene gun (BioRad, Mississauga, ON, CA). Briefly, cells were pre-treated with 100 μM NWL inhibitors or 5 μM Z-VEID-fmk for 2 h. The media was removed and the neurons were shot at 100 psi. The media was quickly replaced with the inhibitors present. The plasmid was expressed for 16 h before setting up the fluorescence microscope (Nikon Eclipse Ti) to acquire 20 images per condition every hour for 72 h at 37 °C with 5% CO2. The images were analyzed by counting the total number of neurons (50–100 neurons per condition per independent experiment), and the number of beaded, swollen soma, and healthy neurons. […]

[4] = biological target: T3, recombinant Caspase-2 (Homo sapiens, UniProt P42575); assay: Caspase Inhibitor Drug Screening Kit (BioVision), VDVAD-AFC substrate; type: biochemical; details: not active site titrated
T3 construct: purchased BioVision
T3 sequence (P42575 whole entry): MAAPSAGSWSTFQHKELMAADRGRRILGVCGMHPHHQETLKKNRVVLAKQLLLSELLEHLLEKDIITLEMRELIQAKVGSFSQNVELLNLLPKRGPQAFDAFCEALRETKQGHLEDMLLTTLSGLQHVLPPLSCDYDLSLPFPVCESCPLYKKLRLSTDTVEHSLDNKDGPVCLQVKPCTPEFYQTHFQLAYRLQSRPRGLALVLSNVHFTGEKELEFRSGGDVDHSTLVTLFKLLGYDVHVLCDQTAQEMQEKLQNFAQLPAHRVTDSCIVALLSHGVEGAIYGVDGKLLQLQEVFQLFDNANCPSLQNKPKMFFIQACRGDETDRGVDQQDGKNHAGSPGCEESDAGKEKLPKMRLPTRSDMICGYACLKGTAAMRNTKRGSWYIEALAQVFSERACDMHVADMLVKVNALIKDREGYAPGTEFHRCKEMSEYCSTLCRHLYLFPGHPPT
Method: as §1

T1 sequence (P29466 120-404): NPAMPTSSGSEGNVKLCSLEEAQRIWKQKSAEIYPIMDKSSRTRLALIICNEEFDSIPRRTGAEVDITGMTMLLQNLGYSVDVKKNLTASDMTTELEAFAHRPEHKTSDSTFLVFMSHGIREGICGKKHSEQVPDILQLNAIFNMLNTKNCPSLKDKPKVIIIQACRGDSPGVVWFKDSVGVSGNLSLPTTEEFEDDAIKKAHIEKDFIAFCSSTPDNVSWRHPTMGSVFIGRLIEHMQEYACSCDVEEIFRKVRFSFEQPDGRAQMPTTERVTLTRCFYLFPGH

Row | SMILES | IC50 [1] [nM] | IC50 [2] [nM] | toxicity in human neurons [3] | neuronal morphology [3] | mitochondrial reductive potential (MTT) [3] | IC50 [4] [nM]
1 | CCC(C)[C@H](NC(=O)[C@H](CCC(=O)O)NC(=O)[C@@H](NC(=O)OCc1ccccc1)C(C)C)C(=O)N[C@H](/C=C/S(C)(=O)=O)CC(=O)O (stereo partly drawn) [NWL-117] | 2700 | 130 | neither NWL-117 nor −154 is toxic | did not change neuronal morphology | comparable to vehicle-treated neurons | > 100000
2 | CCC(C)[C@H](NC(=O)[C@H](CCC(=O)O)NC(=O)[C@@H](NC(=O)OCc1ccccc1)C(C)C)C(=O)N[C@H](/C=C(\Cl)S(C)(=O)=O)CC(=O)O (stereo partly drawn) [NWL-154] | 3850 | 190 | neither NWL-117 nor −154 is toxic | did not change neuronal morphology | comparable to vehicle-treated neurons | > 100000
